The record followed here is US20180105492A1, “COMPOUNDS DERIVED FROM 3-ALKYLAMINE-1H-INDOLYL ACRYLATE AND THEIR USE IN THE TREATMENT OF NEURODEGENERATIVE DISEASES” (FUNDACION PARA LA INVESTIGACION BIOMEDICA DEL HOSPITAL …, priority 2014, published 2018).

For test [1], the system named is Nrf2 transcription factor (Nrf2-ARE). Description: Nrf2-ARE induction, luciferase activity in AREc32 (MCF7 cells stably transfected with ARE-LUC). To be noted: Homo sapiens, 24 h, basal = 1, read-out: Relative Luciferase activity (response versus basal). It is filed as cell-based. The method, then: For the study of Nrf2 transcription factor, the cellular line AREC32 was used, which is characterized for being stably transfected with the reporter gene of Luciferase linked to the ARE sequence. In the presence electrophilic compounds or oxidative stress, Nrf2 factor binds to ARE sequences, activating luciferase expression and producing a proportional quantity of luciferase. The AREc32 cells were cultured in DMEM media with glutamax, supplemented with 10% fetal bovine serum (FBS), 1% penicillin-streptomycin and 1.6% geneticine (G418) (obtained from GIBCO, Madrid, Spain). Cells were cultured in 75 cm flasks with 11 mL of specific media, incubated at 37° C. and 5% of CO2. Cells were passed every 4-6 days (1:4), whenever the confluence reached 80%. For the experiments, cells were cultured in transparent surface 96 well plates at a density of […] with 100 μL/well. After 24 h in culture, cells were treated with the compounds at different concentrations (1, 10, 30 and 60 μM) during 24 h at 37° C. and 5% CO2. In every experiment it was also included a basal variable, a variable with 10 μM tert-butyl hydroquinone (TBHQ) (positive control) and the variables of the study in a final volume of 100 μL. After an incubation of 24 h with the compounds, luciferase activity was measured by bioluminescence using the commercial kit “Luciferase assay system” (Promega E1500). For that, treatments were removed and cells were washed with 100 μL of PBS 0.1 M. After washing, 20 μL of “lysis buffer” reactive was added to each well. 10 minutes later, luminescence was measured using the multi-well reader FluoStar optima (BMG labtech).
Luminescence was measured in arbitrary units and is directly proportional to luciferase quantity in the wells, which is also directly proportional to Nrf2 transcription factor induction by the specific compound at the established concentration. Measurements were made in duplicate and values were normalized to the basal luminescence value, considered as 1.
The results of Nrf2 induction obtained for the compounds 1 to 16 are shown in Table 1 and are expressed as induction, considering 1 the non-treated cells.

Test [2] deals with SH-SY5Y cells. The test can be described thus: Neuroprotection against oxidative stress induced by menadione, pre- and co-incubation, MTT. Format: cell-based. To be noted: Homo sapiens, 24 h, compound 1 μM pre- and co-incubation, Menadione (8 mM); for viability at 1 µM: read-out: % Survival. Here is the method: SH-SY5Y cells [ECACC 94030304], in 5 to 16 passage after defreezing were maintained in Eagle media modified by Dulbecco (DMEM) containing 15 non-essential amino acids and supplemented with 10% fetal bovine serum, 1 mM glutamine, 50 units/mL penicillin/streptomycin (obtained from GIBCO, Madrid, Spain). Cells were seeded in flasks containing supplemented media and were maintained in an incubator at 37° C. and 5% CO2. 1:4 passes were performed twice per week. For the experiments, cells were seeded in 24 well-plates at a density of 2×10^5 cells/well, or in 96 well-plates at a density of 8×10^4 cells/well. For cytotoxicity experiments, cells were treated with the compounds before confluence with DMEM media supplemented with fetal bovine serum 1%.
In order to assess cellular viability, we measured the metabolic reduction of 3-(4,5-Dimethylthiazol-2-yl)-2,5 diphenyltetrazolium bromide (MTT). MTT is an indirect assay to measure cellular viability. It is a colorimetric method based on the reduction of 3-(4,5-Dimethylthiazol-2-yl)-2,5 diphenyltetrazolium. This process is performed by the mitochondrial enzyme succinate-dehydrogenase present in metabolic active cells. Thus, the water-soluble yellow MTT (tetrazolium salt) is transformed into a insoluble purple compound (formazan). Quantity of living cells is directly proportional to the quantity of formazan (Mosmann, 1983, J Immunol Methods, 65: 55-63). […] Therefore, with this assay we can measure cellular surviving and proliferation and also, we can determine the cytotoxicity of potential neuroprotective compounds. In order to assess cellular viability in SH-SY5Y cell line, we added 30 μl/well of MTT (5 mg/mL) and after 2 h, medium was carefully removed to avoid losing the formazan and was diluted in 300 μL of DMSO. Afterwards, samples were transferred to a 96 well-plate and the absorbance was measured at 570 nm using a absorbance/fluorescence reader FluoStar optima®. Every MTT assay was performed in triplicates. Absorbance values obtained with the toxic alone were subtracted to the absorbance values obtained in basal conditions (without treatment). That result was considered as the 100% of cell death and the values obtained with the compounds in the presence of the toxic stimulus were normalized as percentages of that value. For determining the surviving percentage, those percentages of cell death were subtracted to 100.
Neuroprotection elicited by the compounds of the invention 1-16: The activation of Nrf2-ARE pathway by different compounds exerts neuroprotective effects against toxic models based on oxidative stress via the expression of cytoprotective genes. […] We evaluated the neuroprotective potential of the compounds using the human neuroblastoma cell line using the following cytotoxicity models: 1) oxidative stress induced by rotenone+oligomycin, both blockers of the electron transport chain as previously described (Halliwell, 1992, J Neurochem, 59: 1609-23, Newhouse y col., 2004, Toxicol Sci, 79: 137-46), and 2) cytotoxicity induced by the electrophilic compound Menadione. This compound produces oxidative stress after being metabolized by microsomal enzymes in the cell which produces hydroxyl radical and oxygen reactive species. As a consequence, there is a depolarization of mitochondrial membrane generating a release of apoptotic factors such as cytochrome c, and activating the caspase cascade (Loor y col., 2010, Free Radic Biol Med, 49: 1925-36, Chuang y col., 2002, Cancer Res, 62: 6246-54). Caspase 3 activation can produce the lysis of proteins and induce DNA fragmentation, leading to cell death (Gerasimenko y col., 2002, J Cell Sci, 115: 485-97).
To further confirm the neuroprotective capacity in another model of oxidative stress, menadione was selected as toxic stimulus. […]

In the case of `C/C=C/C(=O)Oc1ccc2[nH]cc(CCNC(C)=O)c2c1` [Compound 1, 3-(2-acetamidoethyl)-1H-indol-5-yl (E)-2-butenoate], in test [1], the fold induction at 10 µM turned out to be 2.34 ± 0.2, the fold induction at 30 µM stood at 12.1 ± 1.3 and the fold induction at 60 µM was 30.7 ± 1.7. In test [2], the % protection against menadione toxicity at 1 µM worked out at 63.3% and the viability at 1 µM was determined as 87.7 ± 1.74%.
In the same order, the values of `CC(=O)NCCc1c[nH]c2ccc(OC(=O)/C=C/c3ccccc3)cc12` [Compound 2, 3-(2-acetamidoethyl)-1H-indol-5-yl cinnamate] are 1.63 ± 0.2, 1.78 ± 0.1, 2.54 ± 0.3, 32.5% and 74 ± 3.18%.
For `CC(=O)NCCc1c[nH]c2ccc(OC(=O)/C=C/c3ccc(C)cc3)cc12` [Compound 3, 3-(2-acetamidoethyl)-1H-indol-5-yl (E)-3-(4-methylphenyl)acrylate] the same measures were 1.26 ± 0.1, 2.03 ± 0.1, 3.26 ± 0.3, 25% and 71.4 ± 2.43%.
Regarding `COc1ccccc1/C=C/C(=O)Oc1ccc2[nH]cc(CCNC(C)=O)c2c1` [Compound 4, 3-(2-acetamidoethyl)-1H-indol-5-yl (E)-3-(2-methoxyphenyl)acrylate], in test [1], the fold induction at 10 µM turned out to be 1.67 ± 0.1, the fold induction at 30 µM stood at 2.01 ± 0.1 and the fold induction at 60 µM is 2.53 ± 0.1. In test [2], the % protection against menadione toxicity at 1 µM amounted to 67.1% and the viability at 1 µM came out at 90.5 ± 1.97%.
Consider `COc1cccc(/C=C/C(=O)Oc2ccc3[nH]cc(CCNC(C)=O)c3c2)c1` [Compound 5, 3-(2-acetamidoethyl)-1H-indol-5-yl (E)-3-(3-methoxyphenyl)acrylate], for which, in test [1], the fold induction at 10 µM came to 1.39 ± 0.1, the fold induction at 30 µM is 1.63 ± 0.2 and the fold induction at 60 µM worked out at 2.09 ± 0.2. Moreover, in test [2], the % protection against menadione toxicity at 1 µM came to 38.1% and the viability at 1 µM amounted to 76 ± 3.31%.
In the same order, the values of `COc1ccc(/C=C/C(=O)Oc2ccc3[nH]cc(CCNC(C)=O)c3c2)cc1` [Compound 6, 3-(2-acetamidoethyl)-1H-indol-5-yl (E)-3-(4-methoxyphenyl)acrylate] are 2.02 ± 0.2, 3.4 ± 0.3, 4.62 ± 0.4, 35.8% and 74.7 ± 2.91%.
In the same order, the values of `CC(=O)NCCc1c[nH]c2ccc(OC(=O)/C=C/c3ccc(O)cc3)cc12` [Compound 7, 3-(2-acetamidoethyl)-1H-indol-5-yl (E)-3-(4-hydroxyphenyl)acrylate] are 0.95 ± 0.1, 1.09 ± 0.1, 1.57 ± 0.1, 61.8% and 86.8 ± 3.24%.
In the same order, the values of `COc1cc(/C=C/C(=O)Oc2ccc3[nH]cc(CCNC(C)=O)c3c2)ccc1O` [Compound 8, 3-(2-acetamidoethyl)-1H-indol-5-yl (E)-3-(4-hydroxy-3-methoxyphenyl)acrylate] are 1.11 ± 0.1, 1.83 ± 0.1, 2.36 ± 0.1, 69.4% and 89.9 ± 1.86%.
On to `CC(=O)NCCc1c[nH]c2ccc(OC(=O)/C=C/c3ccc(F)cc3)cc12` [Compound 9, 3-(2-acetamidoethyl)-1H-indol-5-yl (E)-3-(4-fluorophenyl)acrylate], for which, in test [1], the fold induction at 10 µM stood at 1.92 ± 0.2, the fold induction at 30 µM came out at 2.27 ± 0.2 and the fold induction at 60 µM was found to be 4.21 ± 0.6. Further, in test [2], the % protection against menadione toxicity at 1 µM stood at 29.6% and the viability at 1 µM was found to be 71.6 ± 3.74%.
With `CC(=O)NCCc1c[nH]c2ccc(OC(=O)/C=C/c3ccc(Br)cc3)cc12` [Compound 10, 3-(2-acetamidoethyl)-1H-indol-5-yl (E)-3-(4-bromophenyl)acrylate], in test [1], the fold induction at 10 µM is 1.53 ± 0.2, the fold induction at 30 µM worked out at 3.12 ± 0.5 and the fold induction at 60 µM was found to be 13.3 ± 2.1. In test [2], the % protection against menadione toxicity at 1 µM turned out to be 27.6% and the viability at 1 µM came to 72.4 ± 3.75%.
In the same order, the values of `CC(=O)NCCc1c[nH]c2ccc(OC(=O)/C=C/c3ccc(Cl)cc3)cc12` [Compound 11, 3-(2-acetamidoethyl)-1H-indol-5-yl (E)-3-(4-chlorophenyl)acrylate] are 1.18 ± 0.1, 1.59 ± 0.2, 3.55 ± 0.9, 57% and 85.7 ± 2.93%.
For `CC(=O)NCCc1c[nH]c2ccc(OC(=O)/C=C/c3ccc(Cl)c(Cl)c3)cc12` [Compound 12, 3-(2-acetamidoethyl)-1H-indol-5-yl (E)-3-(3,4-dichlorophenyl)acrylate] the same measures were 1.16 ± 0.1, 1.43 ± 0.1, 2.12 ± 0.2, 59.3% and 86.5 ± 3.04%.
Take `CC(=O)NCCc1c[nH]c2ccc(OC(=O)/C=C/c3ccccc3C(F)(F)F)cc12` [Compound 13, 3-(2-acetamidoethyl)-1H-indol-5-yl (E)-3-(2-(trifluoromethyl)phenyl)acrylate]: in test [1], the fold induction at 10 µM was 1.38 ± 0.1, the fold induction at 30 µM worked out at 1.79 ± 0.1 and the fold induction at 60 µM is 2.55 ± 0.2. Besides, in test [2], the % protection against menadione toxicity at 1 µM came out at 36.2% and the viability at 1 µM was 74.9 ± 2.19%.
Take `COc1ccc2[nH]cc(CCNC(C)=O)c2c1` [Melatonin, reference compound]: in test [2], the % protection against menadione toxicity at 1 µM came out at 37.4% and the viability at 1 µM is 72.9 ± 5.24%.
